Assay results taken from ChEMBL document CHEMBL4334471, “Discovery of 1,8-disubstituted-[1,2,3]triazolo[4,5-c]quinoline derivatives as a new class of Hippo signaling pathway inhibitors” (Bioorg Med Chem Lett, 2019).

Assays:
[1] = target: Aurora kinase B (Homo sapiens) (UniProt Q96GD4); assay: Inhibition of recombinant full length human Aurora B assessed as residual activity at 10 uM using AKRRRLSSLRA as substrate incubated for 40 mins in presence of [gamma-33ATP] by scintillation counting based radiometry assay relative to control
[2] = target: Calcium/calmodulin-dependent protein kinase type 1G (Homo sapiens) (UniProt Q96NX5); assay: Inhibition of recombinant full length human CaMKIgamma assessed as residual activity at 10 uM using KKLRRTLSFAEPG as substrate incubated for 40 mins in presence of [gamma-33ATP] by scintillation counting based radiometry assay relative to control
[3] = target: Calcium/calmodulin-dependent protein kinase type II subunit delta (Homo sapiens) (UniProt Q13557); assay: Inhibition of recombinant full length human CaMK2delta assessed as residual activity at 10 uM using […] incubated for 40 mins in presence of [gamma-33ATP] by scintillation counting based radiometry assay relative to control
[4] = target: CDK17/Cyclin-Y (Homo sapiens) (UniProt Q00537+Q8ND76); assay: Inhibition of recombinant full length human CDK17/cyclinY assessed as residual activity at 10 uM using PKSPKARKKL as substrate incubated for 40 mins in presence of [gamma-33ATP] by scintillation counting based radiometry assay relative to control; type: protein-complex assay
[5] = target: Casein kinase II subunit alpha (Homo sapiens) (UniProt P68400); assay: Inhibition of recombinant full length human CK2alpha1 assessed as residual activity at 10 uM using RRRDDDSDDD as substrate incubated 40 mins in presence of [gamma-33ATP] by scintillation counting based radiometry assay relative to control
[6] = target: Fibroblast growth factor receptor 1 (Homo sapiens) (UniProt P11362); assay: Inhibition of recombinant human FGFR1 (456 to 765 residues) assessed as residual activity at 10 uM using KKKSPGEYVNIEF as substrate at 40 mins in presence of [gamma-33ATP] by scintillation counting based radiometry assay relative to control
[7] = test system: Macrophage colony-stimulating factor 1 receptor (Homo sapiens), P07333 [Y969C]; assay: Inhibition of recombinant human FMS Y969C mutant (538 to end residues) assessed as residual activity at 10 uM using EEEEYEEEEEEYYIIEEEEEEYEEEEEEYYEEEEEEKKKK as substrate at 40 mins in presence of [gamma-33ATP] by scintillation counting based radiometry assay relative to control
[8] = target: Mitogen-activated protein kinase kinase kinase kinase 5 (Homo sapiens) (UniProt Q9Y4K4); assay: Inhibition of recombinant human MAP4K5 assessed as residual activity at 10 uM using myelin basic protein as substrate incubated for 40 mins in presence of [gamma-33ATP by scintillation counting based radiometry assay relative to control
[9] = target: Dual specificity mitogen-activated protein kinase kinase 1 (Homo sapiens) (UniProt Q02750); assay: Inhibition of recombinant human MEK1 assessed as residual activity at 10 uM using inactive MAPK2 as substrate incubated for 40 mins in presence of [gamma-33ATP by scintillation counting based radiometry assay relative to control
[10] = target: Dual specificity mitogen-activated protein kinase kinase 2 (Homo sapiens) (UniProt P36507); assay: Inhibition of recombinant human MEK2 assessed as residual activity at 10 uM using MBP as substrate incubated for 40 mins in presence of [gamma-33ATP by scintillation counting based radiometry assay relative to control
[11] = target: Maternal embryonic leucine zipper kinase (Homo sapiens) (UniProt Q14680); assay: Inhibition of recombinant human MELK (1 to 340 residues) assessed as residual activity at 10 uM using KKLNRTLSFAEPG as substrate incubated for 40 mins in presence of [gamma-33ATP by scintillation counting based radiometry assay relative to control
[12] = target: Misshapen-like kinase 1 (Homo sapiens) (UniProt Q8N4C8); assay: Inhibition of recombinant human MINK (1 to 320 residues) assessed as residual activity at 10 uM using myelin basic protein as substrate incubated for 40 mins in presence of [gamma-33ATP by scintillation counting based radiometry assay relative to control
[13] = target: Serine/threonine-protein kinase MRCK alpha (Homo sapiens) (UniProt Q5VT25); assay: Inhibition of recombinant human MRCKalpha (1 to 473 residues) assessed as residual activity at 10 uM using KKRNRTLTV as substrate incubated for 40 mins in presence of [gamma-33ATP by scintillation counting based radiometry assay relative to control
[14] = target: Serine/threonine-protein kinase MRCK gamma (Homo sapiens) (UniProt Q6DT37); assay: Inhibition of recombinant human MRCKgamma assessed as residual activity at 10 uM using KKRNRTLTV as substrate incubated for 40 mins in presence of [gamma-33ATP by scintillation counting based radiometry assay relative to control
[15] = target: 3-phosphoinositide-dependent protein kinase 1 (Homo sapiens) (UniProt O15530); assay: Inhibition of recombinant human PDK1 (52 to end residues) assessed as residual activity at 10 uM using PDKtide as substrate incubated for 40 mins in presence of [gamma33P]ATP by scintillation counting based radiometry assay relative to control
[16] = test system: Proto-oncogene tyrosine-protein kinase Src (Homo sapiens), P12931 [T341M]; assay: Inhibition of recombinant full length human SRC T341M mutant assessed as residual activity at 10 uM using GGEEEEYFELVKK as substrate incubated for 40 mins in presence of [gamma33P]ATP by scintillation counting based radiometry assay relative to control
[17] = target: Testis-specific serine/threonine-protein kinase 4 (Homo sapiens) (UniProt Q6SA08); assay: Inhibition of recombinant full-length human TSSK4 assessed as residual activity at 10 uM using KKLNRTLSFAEPG as substrate incubated for 40 mins in presence of [gamma33P]ATP by scintillation counting based radiometry assay relative to control
[18] = target: Serine/threonine-protein kinase ULK1 (Homo sapiens) (UniProt O75385); assay: Inhibition of recombinant human ULK1 (1 to 314 residues) assessed as residual activity at 10 uM using casein as substrate incubated for 40 mins in presence of [gamma33P]ATP by scintillation counting based radiometry assay relative to control
[19] = target: Serine/threonine-protein kinase ULK3 (Homo sapiens) (UniProt Q6PHR2); assay: Inhibition of recombinant human full length ULK3 assessed as residual activity at 10 uM using casein as substrate incubated for 40 mins in presence of [gamma33P]ATP by scintillation counting based radiometry assay relative to control
[20] = test system: PI3-kinase p110-alpha/p85-alpha (Homo sapiens), P27986+P42336 [E542K]; assay: Inhibition of recombinant full-length human PI3K p110/p85 E542K mutant assessed as residual activity at 10 uM using phosphatidylinositol-4, 5-bisphosphate as substrate incubated for 40 mins in presence of [gamma33P]ATP by scintillation counting based radiometry assay relative to control
[21] = target: LIM domain kinase 2 (Homo sapiens) (UniProt P53671); assay: Inhibition of recombinant human LIMK2 assessed as residual activity after 10 uM by scintillation counting based radiometry assay relative to control

Chain of CDK17/Cyclin-Y (Homo sapiens) (Q00537 whole entry): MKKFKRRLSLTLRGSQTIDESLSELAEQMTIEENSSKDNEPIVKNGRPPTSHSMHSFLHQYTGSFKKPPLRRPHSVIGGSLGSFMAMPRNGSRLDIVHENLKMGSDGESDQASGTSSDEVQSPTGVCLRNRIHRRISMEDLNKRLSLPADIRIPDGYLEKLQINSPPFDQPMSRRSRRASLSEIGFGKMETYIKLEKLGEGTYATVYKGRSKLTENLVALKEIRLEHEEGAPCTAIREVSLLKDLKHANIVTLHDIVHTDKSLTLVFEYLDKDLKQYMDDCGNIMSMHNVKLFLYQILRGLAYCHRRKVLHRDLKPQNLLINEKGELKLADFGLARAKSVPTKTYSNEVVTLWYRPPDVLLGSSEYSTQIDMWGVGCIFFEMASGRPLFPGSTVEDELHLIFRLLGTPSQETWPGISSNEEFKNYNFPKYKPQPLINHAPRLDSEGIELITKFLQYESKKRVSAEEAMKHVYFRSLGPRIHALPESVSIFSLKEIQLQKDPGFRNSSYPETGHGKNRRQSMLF
Chain of CDK17/Cyclin-Y (Homo sapiens) (Q8ND76 2-341 partner limits assumed): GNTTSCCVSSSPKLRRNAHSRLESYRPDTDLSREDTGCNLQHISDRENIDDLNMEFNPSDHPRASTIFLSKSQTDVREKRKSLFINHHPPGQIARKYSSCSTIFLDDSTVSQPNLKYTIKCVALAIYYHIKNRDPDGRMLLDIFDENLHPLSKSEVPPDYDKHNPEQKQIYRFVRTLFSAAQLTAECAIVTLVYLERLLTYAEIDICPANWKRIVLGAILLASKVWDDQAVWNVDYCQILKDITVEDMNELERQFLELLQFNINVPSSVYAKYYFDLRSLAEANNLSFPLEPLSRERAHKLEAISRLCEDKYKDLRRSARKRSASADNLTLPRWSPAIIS
Chain of Aurora kinase B (Homo sapiens) (Q96GD4 whole entry): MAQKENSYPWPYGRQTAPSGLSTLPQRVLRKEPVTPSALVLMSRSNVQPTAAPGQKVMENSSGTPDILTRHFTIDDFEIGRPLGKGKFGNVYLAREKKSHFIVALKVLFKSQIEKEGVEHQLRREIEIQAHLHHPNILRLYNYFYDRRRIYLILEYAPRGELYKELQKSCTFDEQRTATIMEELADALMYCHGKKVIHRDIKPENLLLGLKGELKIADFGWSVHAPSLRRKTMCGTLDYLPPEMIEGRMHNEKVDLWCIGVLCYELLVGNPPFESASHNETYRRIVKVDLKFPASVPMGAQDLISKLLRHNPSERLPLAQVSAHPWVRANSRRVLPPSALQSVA
Chain of 3-phosphoinositide-dependent protein kinase 1 (Homo sapiens) (O15530 whole entry): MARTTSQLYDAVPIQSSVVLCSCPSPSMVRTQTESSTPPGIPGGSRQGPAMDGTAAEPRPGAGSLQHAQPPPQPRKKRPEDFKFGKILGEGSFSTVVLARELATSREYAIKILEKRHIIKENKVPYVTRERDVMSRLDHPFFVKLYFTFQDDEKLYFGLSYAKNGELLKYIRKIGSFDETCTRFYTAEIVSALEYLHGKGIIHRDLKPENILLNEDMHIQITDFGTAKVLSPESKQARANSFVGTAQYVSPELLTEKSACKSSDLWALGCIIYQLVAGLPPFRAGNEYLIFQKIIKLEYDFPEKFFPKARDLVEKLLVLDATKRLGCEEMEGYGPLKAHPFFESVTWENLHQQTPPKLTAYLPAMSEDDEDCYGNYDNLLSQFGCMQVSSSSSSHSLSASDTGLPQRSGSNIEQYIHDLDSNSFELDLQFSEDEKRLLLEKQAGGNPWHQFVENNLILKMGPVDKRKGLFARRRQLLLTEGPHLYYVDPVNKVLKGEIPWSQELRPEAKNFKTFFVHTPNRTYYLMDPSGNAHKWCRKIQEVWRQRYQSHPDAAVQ
Chain of Casein kinase II subunit alpha (Homo sapiens) (P68400 whole entry, looked up, the tested form may be a part): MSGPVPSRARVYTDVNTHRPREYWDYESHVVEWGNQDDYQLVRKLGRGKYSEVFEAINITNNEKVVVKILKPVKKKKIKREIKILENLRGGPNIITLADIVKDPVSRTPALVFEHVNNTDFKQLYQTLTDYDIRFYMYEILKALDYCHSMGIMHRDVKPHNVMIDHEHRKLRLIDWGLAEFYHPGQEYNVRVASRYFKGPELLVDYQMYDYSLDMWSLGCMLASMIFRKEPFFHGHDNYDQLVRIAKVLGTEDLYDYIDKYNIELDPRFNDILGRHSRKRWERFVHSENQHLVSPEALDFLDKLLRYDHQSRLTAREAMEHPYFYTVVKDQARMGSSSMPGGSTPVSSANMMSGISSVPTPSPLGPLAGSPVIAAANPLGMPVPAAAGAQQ
Chain of Testis-specific serine/threonine-protein kinase 4 (Homo sapiens) (Q6SA08 whole entry, the tested form may be a part): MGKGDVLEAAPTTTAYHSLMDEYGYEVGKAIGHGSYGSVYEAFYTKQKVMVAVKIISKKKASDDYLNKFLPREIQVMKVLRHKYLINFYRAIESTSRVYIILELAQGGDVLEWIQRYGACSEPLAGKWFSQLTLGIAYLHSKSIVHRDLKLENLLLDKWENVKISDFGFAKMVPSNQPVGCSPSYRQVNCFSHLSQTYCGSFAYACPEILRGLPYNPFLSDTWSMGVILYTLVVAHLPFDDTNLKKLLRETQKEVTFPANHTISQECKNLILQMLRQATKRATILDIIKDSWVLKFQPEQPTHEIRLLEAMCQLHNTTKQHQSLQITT
Chain of Maternal embryonic leucine zipper kinase (Homo sapiens) (Q14680 whole entry, looked up, the tested form may be a part): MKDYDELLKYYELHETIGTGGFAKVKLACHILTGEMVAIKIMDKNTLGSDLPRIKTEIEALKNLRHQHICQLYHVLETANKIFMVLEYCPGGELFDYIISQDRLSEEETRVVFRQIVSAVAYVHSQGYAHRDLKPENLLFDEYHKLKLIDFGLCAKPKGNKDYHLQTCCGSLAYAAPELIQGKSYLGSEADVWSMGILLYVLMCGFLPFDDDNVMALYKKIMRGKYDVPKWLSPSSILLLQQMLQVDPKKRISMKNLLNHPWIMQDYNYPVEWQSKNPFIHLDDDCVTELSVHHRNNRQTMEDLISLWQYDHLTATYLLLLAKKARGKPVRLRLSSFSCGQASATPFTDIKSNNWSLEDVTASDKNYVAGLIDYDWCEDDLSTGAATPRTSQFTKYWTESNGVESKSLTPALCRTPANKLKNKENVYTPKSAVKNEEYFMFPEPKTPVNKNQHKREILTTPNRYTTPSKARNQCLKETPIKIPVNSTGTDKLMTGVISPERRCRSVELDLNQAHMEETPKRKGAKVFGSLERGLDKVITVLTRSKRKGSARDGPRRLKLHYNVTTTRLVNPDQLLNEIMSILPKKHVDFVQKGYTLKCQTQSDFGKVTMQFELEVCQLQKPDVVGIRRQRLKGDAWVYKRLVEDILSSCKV
Chain of Mitogen-activated protein kinase kinase kinase kinase 5 (Homo sapiens) (Q9Y4K4 whole entry, looked up): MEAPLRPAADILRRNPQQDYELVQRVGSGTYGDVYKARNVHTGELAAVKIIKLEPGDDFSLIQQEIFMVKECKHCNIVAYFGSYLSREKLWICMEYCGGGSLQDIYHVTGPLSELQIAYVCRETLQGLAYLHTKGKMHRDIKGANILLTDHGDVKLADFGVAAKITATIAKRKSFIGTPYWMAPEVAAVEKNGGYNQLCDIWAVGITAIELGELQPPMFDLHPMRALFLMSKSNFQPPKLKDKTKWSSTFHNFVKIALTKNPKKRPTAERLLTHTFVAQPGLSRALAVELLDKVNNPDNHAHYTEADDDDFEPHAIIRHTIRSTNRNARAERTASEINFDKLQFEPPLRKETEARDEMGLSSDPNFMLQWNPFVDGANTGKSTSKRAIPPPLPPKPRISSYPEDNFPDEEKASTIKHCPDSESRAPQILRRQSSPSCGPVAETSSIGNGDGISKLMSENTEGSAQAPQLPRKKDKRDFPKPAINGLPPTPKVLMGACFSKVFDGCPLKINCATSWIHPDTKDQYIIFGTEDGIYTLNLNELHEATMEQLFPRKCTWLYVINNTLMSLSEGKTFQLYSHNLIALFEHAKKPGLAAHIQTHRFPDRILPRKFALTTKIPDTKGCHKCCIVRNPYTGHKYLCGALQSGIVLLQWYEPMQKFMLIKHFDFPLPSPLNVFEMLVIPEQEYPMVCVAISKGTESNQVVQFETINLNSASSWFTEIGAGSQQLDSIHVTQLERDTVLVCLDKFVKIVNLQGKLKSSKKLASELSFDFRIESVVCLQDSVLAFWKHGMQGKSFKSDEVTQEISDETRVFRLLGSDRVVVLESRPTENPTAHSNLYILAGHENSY
Chain of Calcium/calmodulin-dependent protein kinase type 1G (Homo sapiens) (Q96NX5 whole entry): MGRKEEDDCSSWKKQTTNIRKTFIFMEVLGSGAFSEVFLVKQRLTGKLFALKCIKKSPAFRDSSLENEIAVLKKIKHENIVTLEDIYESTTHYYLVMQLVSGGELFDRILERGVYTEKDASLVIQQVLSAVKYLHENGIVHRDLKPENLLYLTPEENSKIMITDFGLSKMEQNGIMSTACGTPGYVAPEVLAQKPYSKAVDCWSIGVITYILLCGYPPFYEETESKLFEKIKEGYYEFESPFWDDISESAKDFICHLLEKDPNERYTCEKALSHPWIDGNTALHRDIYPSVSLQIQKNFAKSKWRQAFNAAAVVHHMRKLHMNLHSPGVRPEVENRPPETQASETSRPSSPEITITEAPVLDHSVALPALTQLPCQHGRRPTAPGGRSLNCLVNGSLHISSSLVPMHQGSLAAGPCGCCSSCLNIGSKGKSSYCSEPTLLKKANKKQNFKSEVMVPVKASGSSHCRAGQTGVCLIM
Chain of Dual specificity mitogen-activated protein kinase kinase 1 (Homo sapiens) (Q02750 whole entry): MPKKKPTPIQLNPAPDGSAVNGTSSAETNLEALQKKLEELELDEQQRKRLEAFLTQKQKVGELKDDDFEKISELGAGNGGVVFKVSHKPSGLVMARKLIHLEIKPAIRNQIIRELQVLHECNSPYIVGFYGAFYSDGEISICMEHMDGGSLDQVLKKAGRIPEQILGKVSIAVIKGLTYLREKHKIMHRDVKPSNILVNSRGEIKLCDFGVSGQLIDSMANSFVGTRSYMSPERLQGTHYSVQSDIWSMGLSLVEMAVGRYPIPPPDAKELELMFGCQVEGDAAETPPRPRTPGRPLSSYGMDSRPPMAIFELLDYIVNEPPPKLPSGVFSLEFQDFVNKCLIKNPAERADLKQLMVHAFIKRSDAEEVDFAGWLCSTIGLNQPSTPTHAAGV

Compound: C[C@@H](c1ccccc1)n1nnc2cnc3ccc(-c4cnc5[nH]ccc5c4)cc3c21
- Activity [1]: 34%
- Activity [2]: 47%
- Activity [3]: 68%
- Activity [4]: 85%
- Activity [5]: 68%
- Activity [6]: 34%
- Activity [7]: 52%
- Activity [8]: 62%
- Activity [9]: 85%
- Activity [10]: 92%
- Activity [11]: 25%
- Activity [12]: 81%
- Activity [13]: 105%
- Activity [14]: 67%
- Activity [15]: 80%
- Activity [16]: 74%
- Activity [17]: 77%
- Activity [18]: 91%
- Activity [19]: 94%
- Activity [20]: 8%
- Activity [21]: 56%
